Columns and labels:
[1] = tested on: balloon-injured coronary arteries (neointimal formation); experiment: Angioplasty balloon injury of porcine coronary arteries, xenon-133 radiogas balloon irradiation, morphometry after two weeks; type: in vivo; conditions: for IA (intimal area): two weeks after treatment, control 1.04 ± 0.20; for IA/FL (intimal area corrected for medical fracture length): control 0.55 ± 0.06
Description: Prior art systems can falter with regards to dose homogeneity, optimal efficacy, radiation safety restrictions, patient handling, and radionuclide availability. The present medical radiation treatment system was developed and tested for irradiation with historically safe xenon-133 inert radiogas. In order to determine the efficacy of xenon-133 radiogas to inhibit neointimal formation and subsequent luminal restenosis, angioplasty balloon injury was performed in the coronary arteries of 17 juvenile porcine subjects. Following balloon injury of the coronary arteries of these porcine subjects, 3.0 to 3.5 mm balloons of 30 to 40 mm lengths were positioned to cover and overlap the injured vessel segment. A negative pressure was obtained in the radiocatheter prior to placement. Xenon-133 activity of 250-300 mCi (in 2.0-2.5 cc's) was injected to fill the balloon segment, uniformly abutting the lumen wall. A dose of either 15 Gy or 30 Gy was prescribed and delivered to a target tissue depth of 0.25 mm from the expanded balloon surface. The dwell time during inflation was 2±0.5 minutes (avg.). Prior in vitro dosimetry trials were performed to obtain reference micro-dosimetry results. Summary data analysis including reference tables and graphics, were performed and applied for delivery ranges as described above. This was performed using multiple trials with Cook GRII® balloon catheters of various coronary sizes with different quantities of xenon-133 (millicuries), exposure time (min.), and volumes (cc). Customized solid water phantoms, layered Gafchromic film, laser/light densitometry readings, and referenced dosimetry graphics were standardly applied to obtain these referenced measurements.
(§1) Localization of the radiogas filled balloon was verified by Gamma Camera and fluoroscopic imaging. The radiation exposure measured 100 mR/h at the chest wall and 5 mR/h immediately bedside. Two weeks following treatment, the animals were harvested, the arteries perfusion fixed, stained, and morphometrically analyzed. The intimal area (IA) was compared between the irradiated and control arteries.

[2] = Radiation exposure measured during radiogas balloon treatment; type: in vivo, porcine; conditions: 250-300 mCi in balloon
Description: Prior art systems can falter with regards to dose homogeneity, optimal efficacy, radiation safety restrictions, patient handling, and radionuclide availability. The present medical radiation treatment system was developed and tested for irradiation with historically safe xenon-133 inert radiogas. In order to determine the efficacy of xenon-133 radiogas to inhibit neointimal formation and subsequent luminal restenosis, angioplasty balloon injury was performed in the coronary arteries of 17 juvenile porcine subjects. […] This was performed using multiple trials with Cook GRII® balloon catheters of various coronary sizes with different quantities of xenon-133 (millicuries), exposure time (min.), and volumes (cc). Customized solid water phantoms, layered Gafchromic film, laser/light densitometry readings, and referenced dosimetry graphics were standardly applied to obtain these referenced measurements.
as §1, with “The intimal area (IA) was compared between the irradiated and control arteries.” left out

For `[133Xe]` [Xe-133, xenon-133], the “% absolute ratio reduction (IA/FL vs control)” value ([1]; 15 Gy) was 71%, the “IA (intimal area)” value ([1]; 15 Gy at 0.25 mm tissue depth, n = 9) was 0.34 ± 0.17 mm^2 and the “share of group showing IA (mm^2) of ≦0.06” value ([1]; 15 Gy group) was 66%. The “IA/FL (intimal area corrected for medical fracture length)” value ([1]; 15 Gy, n = 9) was 0.16 ± 0.08, the “% absolute ratio reduction (IA/FL vs control)” value ([1]; 30 Gy) was 45% and the “IA (intimal area)” value ([1]; 30 Gy at 0.25 mm tissue depth, n = 8) was 0.38 ± 0.18 mm^2. For the same compound, the “share of group showing IA (mm^2) of ≦0.06” value ([1]; 30 Gy group) was 44%, the thrombosis ([1]; 30 Gy group) was “slight trend toward increased thrombosis” and the “IA/FL (intimal area corrected for medical fracture length)” value ([1]; 30 Gy, n = 8) was 0.32 ± 0.12. For the same compound, the “neointimal formation (conclusion from harvested vessels)” value ([1]; porcine model, radiogas balloon catheter) was “effective in markedly reducing neointimal formation”, the radiation exposure ([2]; at the chest wall) was 100 mR/h and the radiation exposure ([2]; immediately bedside) was 5 mR/h.

Reference: US6494824B1, “Medical, radiotherapy source vial” (priority 1998, dated 2002)
